# Laboratory results: ChEMBL document CHEMBL5335800, “Focused Screening Identifies Different Sensitivities of Human TET Oxygenases to the Oncometabolite 2-Hydroxyglutarate” (J Med Chem, 2024)
# The source made the active and inactive calls. No cut-off for these calls is given here.
# Experiments:
# Homo sapiens [1] = organism: Homo sapiens; test: (§1) Competitive inhibition of N-terminal His-tagged recombinant human TET2 catalytic domain LCIdel mutant (D1129 to G1936 residues with Y1481 to N1843 replaced by a 3 x GGGGS linker) expressed in Escherichia coli BL21 (DE3) using 5-methylcytosine as substrate preincubated for 10 mins followed by DNA-cofactor addition in presence of 2-OG and measured after 10 mins by Alphascreen assay; settings: time 20.0 min
# [2] = target: T1, Methylcytosine dioxygenase TET1 (Homo sapiens, UniProt Q8NFU7); assay type: cell-based; settings: U2OS, dose 3.0 mM
# U2OS [3] = assay type: toxicity, cell-based; settings: human
# [4] = target: T2, Methylcytosine dioxygenase TET3 (Homo sapiens, UniProt O43151); test: Inhibition of human TET3 catalytic domain (E824 to I1795 residues) expressed in mammalian cells using 5-methylcytosine as substrate preincubated for 10 mins followed by DNA-cofactor addition and measured after 10 mins by Alphascreen assay
# [5] = target: T1, Methylcytosine dioxygenase TET1; test: Inhibition of N-terminal 3xFlag-tagged human TET1 catalytic domain (E1418 to V2136 residues) expressed in Sf9 cells using 5-methylcytosine as substrate preincubated for 10 mins followed by DNA-cofactor addition and measured after 30 mins by Alphascreen assay
# [6] = target: T1, Methylcytosine dioxygenase TET1; test: Inhibition of N-terminal 3xFlag-tagged human TET1 catalytic domain (E1418 to V2136 residues) expressed in Sf9 cells using 5-methylcytosine as substrate at 100 uM preincubated for 10 mins followed by DNA-cofactor addition and measured after 30 mins by Alphascreen assay relative to control; settings: time 40.0 min
# [7] = target: T2, Methylcytosine dioxygenase TET3; test: Inhibition of human TET3 catalytic domain (E824 to I1795 residues) expressed in mammalian cells using 5-methylcytosine as substrate at 100 uM preincubated for 10 mins followed by DNA-cofactor addition and measured after 10 mins by Alphascreen assay relative to control; settings: time 20.0 min
# Homo sapiens [8] = organism: Homo sapiens; settings: dose 100.0 µM, time 20.0 min
# Homo sapiens [9] = organism: Homo sapiens; test: as §1, with “Inhibition” for “Competitive inhibition”, “substrate at 100 uM” for “substrate”, “addition” for “addition in presence of 2-OG”, “assay relative to control” for “assay”; settings: time 20.0 min
# [10] = target: T1, Methylcytosine dioxygenase TET1
# [11] = target: T3, Methylcytosine dioxygenase TET2 (Homo sapiens, UniProt Q6N021); settings: sf9
# [12] = target: T3, Methylcytosine dioxygenase TET2; test: biochemical
# U2OS [13] = assay type: toxicity, cell-based; settings: human; remark: listed apart in the source
# [14] = target: T1, Methylcytosine dioxygenase TET1; assay type: cell-based; settings: U2OS, dose > 33.0 µM
# [15] = target: T1, Methylcytosine dioxygenase TET1; assay type: cell-based; settings: U2OS, dose 1.0 mM
# T2 sequence (O43151 whole entry, the tested form may be a part): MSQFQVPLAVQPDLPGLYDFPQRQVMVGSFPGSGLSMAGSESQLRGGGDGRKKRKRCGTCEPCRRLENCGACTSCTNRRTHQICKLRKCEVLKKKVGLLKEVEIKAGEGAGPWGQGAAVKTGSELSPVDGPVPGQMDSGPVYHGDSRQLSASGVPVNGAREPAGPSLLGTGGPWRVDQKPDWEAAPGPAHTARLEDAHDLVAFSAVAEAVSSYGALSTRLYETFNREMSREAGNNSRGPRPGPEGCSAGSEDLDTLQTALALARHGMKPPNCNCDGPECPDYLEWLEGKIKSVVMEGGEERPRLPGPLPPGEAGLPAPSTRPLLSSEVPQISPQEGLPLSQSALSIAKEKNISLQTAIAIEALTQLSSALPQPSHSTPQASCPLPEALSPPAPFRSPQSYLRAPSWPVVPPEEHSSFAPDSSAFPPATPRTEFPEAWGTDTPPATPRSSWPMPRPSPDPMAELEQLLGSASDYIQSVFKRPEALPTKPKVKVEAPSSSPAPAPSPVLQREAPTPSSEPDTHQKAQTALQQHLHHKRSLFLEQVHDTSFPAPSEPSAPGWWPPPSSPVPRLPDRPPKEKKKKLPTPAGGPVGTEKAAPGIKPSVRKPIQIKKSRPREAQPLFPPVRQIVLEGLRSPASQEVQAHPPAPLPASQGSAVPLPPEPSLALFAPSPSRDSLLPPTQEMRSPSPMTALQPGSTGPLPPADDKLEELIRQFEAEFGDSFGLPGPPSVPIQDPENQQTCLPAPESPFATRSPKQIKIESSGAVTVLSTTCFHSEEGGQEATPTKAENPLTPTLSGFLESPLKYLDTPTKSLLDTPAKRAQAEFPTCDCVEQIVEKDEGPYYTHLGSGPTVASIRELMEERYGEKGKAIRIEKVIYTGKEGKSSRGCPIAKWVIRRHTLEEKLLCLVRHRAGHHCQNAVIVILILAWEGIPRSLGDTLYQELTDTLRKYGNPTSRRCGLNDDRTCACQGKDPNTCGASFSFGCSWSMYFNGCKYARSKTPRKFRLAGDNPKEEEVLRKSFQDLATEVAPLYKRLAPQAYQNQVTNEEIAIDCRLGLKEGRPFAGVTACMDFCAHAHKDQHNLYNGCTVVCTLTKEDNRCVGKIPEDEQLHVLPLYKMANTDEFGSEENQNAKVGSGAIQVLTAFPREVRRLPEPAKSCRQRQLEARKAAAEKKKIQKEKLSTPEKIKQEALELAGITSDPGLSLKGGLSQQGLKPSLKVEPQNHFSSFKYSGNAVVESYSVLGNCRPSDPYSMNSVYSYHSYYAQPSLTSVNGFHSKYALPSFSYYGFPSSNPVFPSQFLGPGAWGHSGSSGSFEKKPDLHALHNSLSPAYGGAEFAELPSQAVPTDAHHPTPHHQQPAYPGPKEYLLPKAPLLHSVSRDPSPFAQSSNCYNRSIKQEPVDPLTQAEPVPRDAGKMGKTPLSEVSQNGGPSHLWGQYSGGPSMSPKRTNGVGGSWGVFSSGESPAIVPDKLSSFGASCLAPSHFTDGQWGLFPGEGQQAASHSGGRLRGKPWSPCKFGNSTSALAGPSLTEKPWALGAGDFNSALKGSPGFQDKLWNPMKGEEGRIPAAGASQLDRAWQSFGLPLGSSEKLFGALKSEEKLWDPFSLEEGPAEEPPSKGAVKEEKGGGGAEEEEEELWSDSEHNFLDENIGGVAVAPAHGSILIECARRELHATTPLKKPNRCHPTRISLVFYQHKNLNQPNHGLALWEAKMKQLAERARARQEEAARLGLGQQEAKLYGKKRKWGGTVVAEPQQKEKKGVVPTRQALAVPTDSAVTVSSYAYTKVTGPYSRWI
# T1 sequence (Q8NFU7 whole entry): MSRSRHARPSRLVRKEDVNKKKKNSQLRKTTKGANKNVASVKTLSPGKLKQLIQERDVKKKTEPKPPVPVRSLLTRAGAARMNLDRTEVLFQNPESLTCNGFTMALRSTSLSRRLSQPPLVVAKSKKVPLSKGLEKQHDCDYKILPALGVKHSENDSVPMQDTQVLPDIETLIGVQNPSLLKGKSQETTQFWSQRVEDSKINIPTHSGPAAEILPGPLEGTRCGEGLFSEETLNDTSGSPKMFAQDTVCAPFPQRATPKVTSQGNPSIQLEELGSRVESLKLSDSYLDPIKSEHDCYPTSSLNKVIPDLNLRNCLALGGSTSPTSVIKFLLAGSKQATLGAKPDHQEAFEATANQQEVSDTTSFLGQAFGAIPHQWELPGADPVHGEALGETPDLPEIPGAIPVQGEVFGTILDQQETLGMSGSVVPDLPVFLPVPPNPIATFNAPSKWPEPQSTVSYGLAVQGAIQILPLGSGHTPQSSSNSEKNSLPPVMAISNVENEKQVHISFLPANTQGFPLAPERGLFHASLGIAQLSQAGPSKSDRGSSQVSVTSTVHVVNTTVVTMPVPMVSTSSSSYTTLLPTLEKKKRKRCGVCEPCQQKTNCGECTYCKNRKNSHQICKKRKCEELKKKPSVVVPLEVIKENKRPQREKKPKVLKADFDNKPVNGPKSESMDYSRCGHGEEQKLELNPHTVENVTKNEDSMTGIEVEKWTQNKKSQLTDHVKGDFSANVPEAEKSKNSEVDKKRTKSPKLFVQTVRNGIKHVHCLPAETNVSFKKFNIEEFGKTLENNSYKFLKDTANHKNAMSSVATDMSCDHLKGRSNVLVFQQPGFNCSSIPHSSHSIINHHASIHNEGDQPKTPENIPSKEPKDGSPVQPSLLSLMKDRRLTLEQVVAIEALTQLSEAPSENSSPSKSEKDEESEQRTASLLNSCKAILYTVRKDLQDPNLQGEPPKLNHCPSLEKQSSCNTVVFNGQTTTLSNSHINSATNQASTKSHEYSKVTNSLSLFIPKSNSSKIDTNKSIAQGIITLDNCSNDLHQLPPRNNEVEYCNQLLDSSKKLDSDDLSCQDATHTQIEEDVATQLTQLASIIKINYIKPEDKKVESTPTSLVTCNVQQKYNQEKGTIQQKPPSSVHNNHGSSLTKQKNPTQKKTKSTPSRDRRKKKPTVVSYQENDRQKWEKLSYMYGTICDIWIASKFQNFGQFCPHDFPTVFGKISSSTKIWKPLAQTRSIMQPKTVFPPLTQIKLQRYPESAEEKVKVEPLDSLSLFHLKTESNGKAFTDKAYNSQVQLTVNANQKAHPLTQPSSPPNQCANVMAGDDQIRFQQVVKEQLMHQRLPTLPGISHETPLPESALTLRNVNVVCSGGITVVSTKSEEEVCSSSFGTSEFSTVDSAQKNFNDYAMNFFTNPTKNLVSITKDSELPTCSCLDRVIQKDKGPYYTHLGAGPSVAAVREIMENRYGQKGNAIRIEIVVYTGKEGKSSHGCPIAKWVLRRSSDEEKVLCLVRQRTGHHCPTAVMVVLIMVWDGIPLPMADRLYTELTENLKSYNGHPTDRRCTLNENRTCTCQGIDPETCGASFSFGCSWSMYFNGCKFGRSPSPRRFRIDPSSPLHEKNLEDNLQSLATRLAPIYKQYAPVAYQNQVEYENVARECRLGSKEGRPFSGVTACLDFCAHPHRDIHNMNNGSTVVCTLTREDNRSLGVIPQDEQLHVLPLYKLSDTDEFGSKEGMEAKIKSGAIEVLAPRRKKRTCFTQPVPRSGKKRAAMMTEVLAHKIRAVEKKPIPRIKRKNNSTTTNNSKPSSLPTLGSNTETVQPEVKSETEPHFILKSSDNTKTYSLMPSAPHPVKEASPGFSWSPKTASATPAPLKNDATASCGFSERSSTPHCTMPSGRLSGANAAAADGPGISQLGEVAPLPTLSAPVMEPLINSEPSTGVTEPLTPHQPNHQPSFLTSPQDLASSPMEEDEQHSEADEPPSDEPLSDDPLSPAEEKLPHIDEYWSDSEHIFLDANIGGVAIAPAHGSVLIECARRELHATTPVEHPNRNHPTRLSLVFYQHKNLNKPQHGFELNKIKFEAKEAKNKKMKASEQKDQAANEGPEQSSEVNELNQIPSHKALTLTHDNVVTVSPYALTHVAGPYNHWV
structure (smiles),measurement,setting,value
O=C(O)c1ccc(O)c2ncccc12,inhibition,Homo sapiens [1],Active
CCCCCCCCOC(=O)[C@@H](O)CCC(=O)O,inhibition,[2],inactive
same,pCC50,U2OS [3],< 2.7
CCCCCCCCOC(=O)[C@H](O)CCC(=O)O,pCC50,U2OS [3],< 2.7
O=C(O)CNC(=O)c1nc(Cl)c2ccccc2c1O,IC50,[4]; read-out: IC50,≥ 100 µM
same,IC50,[4]; read-out: pIC50 (converted),≥ 100 µM
same,IC50,[5]; read-out: pIC50 (converted),≥ 100 µM
same,IC50,"[5]; sf9, read-out: IC50",≥ 100 µM
CCN(CCN(C)C)C(=O)CNCc1cc(C(N)=O)ccn1,inhibition,[6],< 20%
same,IC50,[4]; read-out: IC50,> 100 µM
same,IC50,[5]; read-out: IC50,> 100 µM
same,inhibition,[7],< 20%
same,inhibition,Homo sapiens [8],< 20%
CC(C)c1c(-c2ccccc2)[nH]c2c(C#N)cnn2c1=O,inhibition,[6],< 20%
same,inhibition,Homo sapiens [9],< 20%
same,IC50,[4]; read-out: IC50,> 100 µM
same,IC50,[5]; read-out: IC50,> 100 µM
same,inhibition,[7],< 20%
same,inhibition,Homo sapiens [8],< 20%
CN(c1ccccc1)c1ccc2c(c1)CCC[C@H]2CNc1cnccc1C(=O)O,IC50,[4]; read-out: IC50,> 100 µM
same,IC50,[5]; read-out: IC50,> 100 µM
O=C(O)CNC(=O)c1c(O)c2ccccc2n(Cc2ccccc2)c1=O,IC50,[4]; read-out: IC50,≥ 100 µM
same,IC50,[4]; read-out: pIC50 (converted),≥ 100 µM
same,IC50,[5]; read-out: pIC50 (converted),≥ 100 µM
same,IC50,"[5]; sf9, read-out: IC50",≥ 100 µM
same,inhibition,[7],< 20%
O=C(O)CCNc1cc(N2CCc3ccccc3CC2)nc(-c2ccccn2)n1,inhibition,Homo sapiens [9],< 20%
same,IC50,[5]; read-out: IC50,> 100 µM
O=c1c(-n2ccnn2)c[nH]n1-c1cc(N2CCOCC2)ncn1 [MOLIDUSTAT],EC50,[10],~100 µM
Cc1nc(C(=O)NCC(=O)O)c(O)c2ccc(Oc3ccccc3)cc12 [ROXADUSTAT],inhibition,Homo sapiens [9],< 20%
same,IC50,[4]; read-out: IC50,≥ 100 µM
same,IC50,[4]; read-out: pIC50 (converted),≥ 100 µM
same,IC50,[5]; read-out: pIC50 (converted),≥ 100 µM
same,IC50,"[5]; sf9, read-out: IC50",≥ 100 µM
O=C(O)CNC(=O)c1c(O)n(C2CCCCC2)c(=O)n(C2CCCCC2)c1=O,inhibition,[6],63%
same,IC50,[11],≥ 100 µM
same,IC50,[4]; read-out: IC50,≥ 100 µM
same,IC50,[4]; read-out: pIC50 (converted),≥ 100 µM
same,IC50,[5]; read-out: pIC50 (converted),≥ 100 µM
same,IC50,"[5]; sf9, read-out: IC50",≥ 100 µM
same,IC50,[12],≥ 100 µM
same,inhibition,[7],36%
Cc1[nH]c2ccccc2c1CCNCc1ccc(/C=C/C(=O)NO)cc1 [PANOBINOSTAT],Activity,U2OS [13],Dose-Dependent Effect
same,inhibition,[14],Active
COC(=O)CCC(=O)C(=O)OC,pCC50,U2OS [3],< 2
Cc1cn([C@H]2C[C@H](O)[C@@H](CO)O2)c(=O)nc1N,inhibition,Homo sapiens [8],< 20%
Nc1nc(=O)n([C@H]2C[C@H](O)[C@@H](CO)O2)cc1CO,inhibition,Homo sapiens [8],< 20%
COC(=O)c1ccnc(C(=O)OC)c1,inhibition,[15],inactive
